Marks after values point to notes of the source that are not given here.
What was measured:
Salmonella typhi = assay: Example 4 irradiation sensitivity (D10) of S. typhi in ground beef; assay type: cell-based; conditions: carvacrol 1.15%, thymol 1.60%
Protocol: (§1) Irradiation treatments of ground beef samples for D10 and shelf life determination were performed using UC-15B irradiator (MDS-Nordion International Inc., Kanata, ON, Canada) equipped with a ^60 Co source at a dose rate of 14.42 kGy/h). Irradiation doses used for D10 determination were ranged from 0.25 to 0.55 kGy for E. coli, from 0.50 to 2.0 kGy for S. typhi, and from 0.5 to 2.5 kGy for the mixture of indigenous microorganisms of ground beef. The shelf life study was performed on samples irradiated at 0.30, 0.85, and 1.75 kGy for E. coli, S. typhi, and the mixture of indigenous microorganisms of ground beef, respectively. For each active compound concentration tested, a group of non-irradiated samples sened as a control. For D10 determination, samples were analysed immediately after irradiation. For shelf life studies, samples were stored at 4° C. and analysed periodically.
(§2) Microbial analysis was performed by homogenising the samples for 2 mn in sterile peptone water (0.1%) using a Lab-blender 400 stomacher (Laboratory Equipment, London, UK). […]
(§3) The kinetics of bacteria destruction by irradiation with or without the food additives was evaluated by linear regression. Bacterial counts (log CFU/ml) were plotted against irradiation doses or active compounds concentration and D10 values were calculated using the PROC REG procedure of SAS (SAS Institute, Cary, N.C., USA). […]

[1] = system: Mixture of indigenous bacteria; assay: Example 4 irradiation sensitivity (D10) of indigenous bacteria of ground beef; assay type: cell-based; conditions: thymol […], trans-cinnamaldehyde […]
Protocol: as §1, §2, §3

S. typhi [2] = assay: Shelf life study, S. typhi in ground beef irradiated at 0.85 kGy; assay type: cell-based, Salmonella typhi; conditions: stored at 4° C., thymol 1.6%
Protocol: as §1
(§4) Microbial analysis was performed by homogenising the samples for 2 mn in sterile peptone water (0.1%) using a Lab-blender 400 stomacher (Laboratory Equipment, London, UK). From this mixture, serial dilutions were prepared and appropriate ones were pour-plated in tryptic soy agar (TSA) (Difco, Laboratories, Detroit, Mich., USA) and incubated at 35° C., 24 hours for the numeration of E. coli and S. typhi. For the ground beef broth, the incubation was performed on Plate Count Agar (PCA; Difco) at 35° C. for 48 h for the numeration mesophilic bacteria, and at 7° C. for 10 days for the numeration of psychrotrophic bacteria. Enterobacteriaceae were numerated on Violet Red Bile Glucose Agar (VRBGA; Difco) 35° C. for 48 hours.
(§5) A shelf life study was undertaken to evaluate the radiation sensitivity during refrigerated storage conditions. Ground beef samples contaminated with E. coli, S. typhi, or a mixture of indigenous micro-organisms were irradiated in presence or absence of selected active compounds. Due to the differences in sensitivity between the micro-organisms under study, the following irradiation doses were used: 0.30 kGy for E. coli, 0.85 kGy for S. typhi, and 1.75 kGy for the mixture of indigenous bacteria. The irradiation doses selected corresponded to the irradiation dose needed to produce 3 log CFU reduction in bacterial population in the control sample (without active compounds).

[3] = system: mixture of indigenous microorganisms of ground beef (mesophilic and psychrotrophic bacteria); assay: Shelf life study, indigenous micro-organisms of ground beef, statements for mesophilic and psychrotrophic bacteria together; assay type: cell-based; conditions: for reduction of bacterial counts by irradiation: control 3 log CFU; for storage time before a bacterial count of approximately 6 log is reached: meat treated with formulation in conjunction with irradiation, about 8 days with irradiation alone
Protocol: as §1, §4, §5
(§6) The shelf life study in ground beef contaminated with the mixture of indigenous microorganisms of ground beef was conducted by evaluating mesophilic, psychrotrophic and total Enterobacteriaceae in the samples. […] Irradiation reduced the bacterial counts by various degrees depending on the type of active compound used: 3 log CFU reduction for control (without active compounds), 3.5 and more than 5 log CFU reduction for samples containing thymol and trans-cinnamaldehyde, respectively. […] Bacterial counts in both sarnples remained below detectable levels even after 44 days. […] A similar effect was also observed during storage for irradiated samples containing thymol as compared to samples without thymol. Between day 5 and day 15, a difference of 2 to 3 log CFU was observed between the two groups of samples.

mesophilic bacteria = assay: Shelf life study, indigenous micro-organisms of ground beef, mesophilic count; assay type: cell-based; conditions: for shelf life period: 4° C., thymol […]
Protocol: as §1, §4, §5, §6

psychrotrophic bacteria = assay: Shelf life study, indigenous micro-organisms of ground beef, psychrotrophic count; assay type: cell-based
Protocol: as §1, §4
A shelf life study was undertaken to evaluate the radiation sensitivity during refrigerated storage conditions. Ground beef samples contaminated with E. coli, S. typhi, or a mixture of indigenous micro-organisms were irradiated in presence or absence of selected active compounds. […]

S. typhi [4] = assay: Irradiation sensitivity (D10) of S. typhi in ground beef; assay type: cell-based, Salmonella typhi (ATCC 19430)
[5] = ground beef irradiated at 1.75 kGy, thymol […], trans-cinnamaldehyde […]
[6] = ground beef irradiated at 1.75 kGy, stored at 4° C., trans-cinnamaldehyde […]
[7] = trans-cinnamaldehyde alone (no irradiation), stored at 4° C.
[8] = ground beef, air, 4° C., carvacrol 1.0% alone or with ascorbic acid 0.5% and/or tetrasodium pyrophosphate 0.1%

## Cc1ccc(C(C)C)c(O)c1 [Thymol, thymol]
Salmonella typhi
  D10(kGy): 0.382 kGy
[1]
  D10(kGy): 0.779 kGy
S. typhi [2]; carvacrol 1.15%
  days of storage after which complete inhibition was produced: 28 days
S. typhi [2]; carvacrol 1.15%, lower than control
  bacterial counts compared with the irradiated control after 15 days of storage: sinilar in both cases
S. typhi [2]
  difference between samples irradiated in presence and absence of compound at day 7: 3 log CFU
[3]; ground beef irradiated at 1.75 kGy, stored at 4° C., thymol […]
  complete inhibition during storage: no complete inhibition
[3]; ground beef irradiated at 1.75 kGy, stored at 4° C., thymol […], 10^7 without thymol
  level of bacteria observed for irradiated samples during storage: 10^4 CFU/g
[3]; [5]
  reduction of bacterial counts by irradiation: 3.5 log CFU
[3]
  storage time before a bacterial count of approximately 6 log is reached: 15 days
Mesophilic bacteria; irradiated samples (1.75 kGy), control 8 days
  shelf life period: 23 days
Mesophilic bacteria; non-irradiated samples, control 2 days
  shelf life period: 8 days
Psychrotrophic bacteria; non-irradiated samples, 4° C., thymol […], control 2 days
  shelf life period: 9 days

## O=C/C=C/c1ccccc1 [Trans-cinnamaldehyde, trans-cinnamaldehyde]
S. typhi [4]; ground beef packed under MAP (60% O2-30% CO2-10% N2), 4° C., trans-cinnamaldehyde […]
  D10(kGy): 0.110 ± 0.002^b* kGy
S. typhi [4]; ground beef packed under air, 4° C., trans-cinnamaldehyde […]
  D10(kGy): 0.356 ± 0.005^a* kGy
S. typhi [4]; ground beef under MAP, trans-cinnamaldehyde […] vs control under the same atmosphere
  Increase in Sensitivity: 50.2%
S. typhi [4]; ground beef under air, trans-cinnamaldehyde […] vs control under the same atmosphere
  Increase in Sensitivity: 32.3%
S. typhi [4]; ground beef, MAP vs air, both with trans-cinnamaldehyde […]
  increase in irradiation sensitivity by modification of the packaging atmosphere: 69.1%
S. typhi [4]; under MAP, trans-cinnamaldehyde […]
  irradiation dose required to completely eliminate S. typhi from the ground beef: 0.6 kGy
S. typhi [4]; under air, trans-cinnamaldehyde 0.89%
  irradiation dose required to completely eliminate S. typhi from ground beef: 0.75 kGy
S. typhi [4]; under air, trans-cinnamaldehyde […]
  irradiation dose required to completely eliminate S. typhi from the ground beef: around 2 kGy
[1]
  D10(kGy): 0.494 kGy
[3]; [6]
  days for which bacterial counts remained below detectable levels: ≥ 44 days
[3]; [5]
  reduction of bacterial counts by irradiation: more than 5 log CFU
[3]
  storage time before a bacterial count of approximately 6 log is reached: more than 35 days
Mesophilic bacteria; [6]
  days after which complete inhibition of bacterial growth resulted: 3 days
Mesophilic bacteria; [7]
  bacteria counts at day 44: ~1 log CFU/g
Mesophilic bacteria; without irradiation, stored at 4° C., trans-cinnamaldehyde […]
  bacterial population reached after 36 days of storage: 1 log CFU
Psychrotrophic bacteria; [6]
  days after which complete inhibition of bacterial growth resulted: 1 days
Psychrotrophic bacteria; [7]
  day of storage at which complete inhibition occurred: 36 days

## Cc1ccc(C(C)C)cc1O [Carvacrol, carvacrol]
S. typhi [4]; [8]
  D10(kGy): 0.235 ± 0.0158^a kGy
  irradiation dose for complete elimination of S. typhi: 1.25 kGy
S. typhi [4]; vs control (0.519 kGy), ground beef, air, 4° C., carvacrol 1.0% alone or with ascorbic acid 0.5% and/or tetrasodium pyrophosphate 0.1%
  Increase in Sensitivity: 54.7%
Salmonella typhi
  D10(kGy): 0.316 kGy
S. typhi [2]; carvacrol 1.15%
  days of storage after which complete inhibition was produced: 22 days
